A short description of data set [1]: Assay (III) ThT fibrillation assay for physical stability. It counts as physicochemical. To be noted: ThT fibrillation assay. In a few lines:
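Freshly prepared formulations, pH-adjusted, with 1 μM ThT; four or eight replicates incubated at 37 °C under 960 rpm orbital shaking. Fluorescence (ex 444/em 485 nm) read every 20 min; […]. Peptide concentration measured by RP-HPLC before and after the run.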

For the next data set, the system named is food intake. Nature of the data set: Assay (I) efficacy testing on appetite (food intake), ad libitum fed rat model. To be noted: 3 nmol/kg. The format is in vivo, Sprague Dawley (SD) rats. In a few lines:
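Sprague Dawley rats (200–250 g), single-housed under reversed light cycle with free food and water, got one ip, po or sc dose of 0.01–3 mg/kg just before lights-off. Individual food intake recorded hourly for 7 h, then at 24 h and sometimes 48 h; groups of 5–8, Grubbs outliers excluded.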

The values that follow come from US8722849B2, “Polypeptides” (Novo Nordisk A/S, priority 2011, dated 2014).

Starred links: 1 amine or outer side, 2 acyl side, 3 side chain; linkers in the order of their positions; H or OH if unused. Positions of bridges follow the written chain, without caps; N, C: chain ends. Residues, ends and D or L forms follow the SMILES beside them. *: point of attachment. C20 diacid = O=C(O)CCCCCCCCCCCCCCCCCCC(=O)*; C18 diacid = O=C(O)CCCCCCCCCCCCCCCCC(=O)*; γGlu = O=C(O)[C@H](CCC(=O)[*:2])N[*:1]

As to `CC[C@H](C)[C@H](NC(=O)[C@H](CCC(=O)O)NC(=O)CNC(=O)[C@H](Cc1ccccc1)NC(=O)[C@H](CC(N)=O)NC(=O)[C@H](CC(N)=O)NC(=O)[C@H](CO)NC(=O)[C@H](CO)NC(=O)[C@H](CCCNC(=N)N)NC(=O)[C@H](Cc1c[nH]cn1)NC(=O)[C@H](CC(C)C)NC(=O)[C@H](Cc1ccccc1)NC(=O)[C@H](CCC(=O)O)NC(=O)[C@H](C)NC(=O)[C@H](CC(C)C)NC(=O)[C@H](CCCNC(=N)N)NC(=O)[C@H](CCC(N)=O)NC(=O)[C@@H](NC(=O)[C@H](C)NC(=O)[C@@H]1CSSC[C@H](NC(=O)[C@H](Cc2c[nH]cn2)NC(=O)CC[C@H](NC(=O)CCCCCCCCCCCCCCCCCCC(=O)O)C(=O)O)C(=O)N[C@@H](CC(N)=O)C(=O)N[C@@H]([C@@H](C)O)C(=O)N[C@@H](C)C(=O)N[C@@H]([C@@H](C)O)C(=O)N1)[C@@H](C)O)C(=O)N[C@@H](CC(C)C)C(=O)N[C@@H](CO)C(=O)N[C@@H](CCCNC(=N)N)C(=O)N[C@H](C(=O)N[C@@H](CC(N)=O)C(=O)N[C@H](C(=O)NCC(=O)N[C@@H](CO)C(=O)N[C@@H](CC(N)=O)C(=O)N[C@H](C(=O)N[C@@H](Cc1ccc(O)cc1)C(N)=O)[C@@H](C)O)C(C)C)[C@@H](C)O` [Example 7, N-alpha-[(S)-4-Carboxy-4-(19-carboxynonadecanoylamino)butyryl]-[His1,Glu14,His17,Arg18,Glu25,Ser28,Arg29]-pramlintide] ({C20 diacid-γGlu}-HCNTATCATQRLAEFLHRSSNNFGEILSRTNVGSNTY-NH2; disulfide 2-7 (inferred); C-terminus assumed), the “ThT pH 4.0 lag time (h)” value in data set [1] was 0 h. Besides, in the data set with food intake, the “Food intake reduction 0-24 h 3 nmol/kg (%)” value amounted to 53% and the “Food intake reduction 24-48 h 3 nmol/kg (%)” value was found to be 46%.

`CC[C@H](C)[C@H](NC(=O)[C@@H]1CCCN1C(=O)CNC(=O)[C@H](Cc1ccccc1)NC(=O)[C@H](CC(N)=O)NC(=O)[C@H](CC(N)=O)NC(=O)[C@H](CO)NC(=O)[C@H](CO)NC(=O)[C@H](Cc1c[nH]cn1)NC(=O)[C@H](Cc1c[nH]cn1)NC(=O)[C@H](CC(C)C)NC(=O)[C@H](Cc1ccccc1)NC(=O)[C@H](CCC(=O)O)NC(=O)[C@H](C)NC(=O)[C@H](CC(C)C)NC(=O)[C@H](CCCNC(=N)N)NC(=O)[C@H](CCC(N)=O)NC(=O)[C@@H](NC(=O)[C@H](C)NC(=O)[C@@H]1CSSC[C@H](NC(=O)[C@H](Cc2c[nH]cn2)NC(=O)[C@H](Cc2c[nH]cn2)NC(=O)[C@H](Cc2c[nH]cn2)NC(=O)CC[C@H](NC(=O)CCCCCCCCCCCCCCCCCCC(=O)O)C(=O)O)C(=O)N[C@@H](CCCNC(=N)N)C(=O)N[C@@H]([C@@H](C)O)C(=O)N[C@@H](C)C(=O)N[C@@H]([C@@H](C)O)C(=O)N1)[C@@H](C)O)C(=O)N[C@@H](CC(C)C)C(=O)N1CCC[C@H]1C(=O)N1CCC[C@H]1C(=O)N[C@H](C(=O)N[C@@H](CC(N)=O)C(=O)N[C@H](C(=O)NCC(=O)N[C@@H](CO)C(=O)N[C@@H](CC(N)=O)C(=O)N[C@H](C(=O)N[C@@H](Cc1ccc(O)cc1)C(N)=O)[C@@H](C)O)C(C)C)[C@@H](C)O` [Example 22, N-alpha-[(S)-4-Carboxy-4-(19-carboxynonadecanoylamino)butyryl]-His-His-[His1,Arg3,Glu14,His17]-pramlintide] ({C20 diacid-γGlu}-HHHCRTATCATQRLAEFLHHSSNNFGPILPPTNVGSNTY-NH2; disulfide 4-9 (inferred)): the “ThT pH 4.0 lag time (h)” value in data set [1] stood at 2.7 h. For the same compound, in the data set on food intake, the “Food intake reduction 0-24 h 3 nmol/kg (%)” value is given as 26% and the “Food intake reduction 24-48 h 3 nmol/kg (%)” value stood at 5%.

Regarding `CC[C@H](C)[C@H](NC(=O)[C@@H]1CCCN1C(=O)CNC(=O)[C@H](Cc1ccccc1)NC(=O)[C@H](CC(N)=O)NC(=O)[C@H](CC(N)=O)NC(=O)[C@H](CO)NC(=O)[C@H](CO)NC(=O)[C@H](Cc1c[nH]cn1)NC(=O)[C@H](Cc1c[nH]cn1)NC(=O)[C@H](CC(C)C)NC(=O)[C@H](Cc1ccccc1)NC(=O)[C@H](CCC(=O)O)NC(=O)[C@H](C)NC(=O)[C@H](CC(C)C)NC(=O)[C@H](CCCNC(=N)N)NC(=O)[C@H](CCC(N)=O)NC(=O)[C@@H](NC(=O)[C@H](C)NC(=O)[C@@H]1CSSC[C@H](NC(=O)[C@H](CCCCN)NC(=O)[C@H](CCC(=O)O)NC(=O)CC[C@H](NC(=O)CCCCCCCCCCCCCCCCCCC(=O)O)C(=O)O)C(=O)N[C@@H](CC(N)=O)C(=O)N[C@@H]([C@@H](C)O)C(=O)N[C@@H](C)C(=O)N[C@@H]([C@@H](C)O)C(=O)N1)[C@@H](C)O)C(=O)N[C@@H](CC(C)C)C(=O)N1CCC[C@H]1C(=O)N1CCC[C@H]1C(=O)N[C@H](C(=O)N[C@@H](CC(N)=O)C(=O)N[C@H](C(=O)NCC(=O)N[C@@H](CO)C(=O)N[C@@H](CC(N)=O)C(=O)N[C@H](C(=O)N[C@@H](Cc1ccc(O)cc1)C(N)=O)[C@@H](C)O)C(C)C)[C@@H](C)O` [Example 26, N-alpha-[(S)-4-Carboxy-4-(19-carboxynonadecanoylamino)butyryl]-Glu-[Glu14,His17]-pramlintide] ({C20 diacid-γGlu}-EKCNTATCATQRLAEFLHHSSNNFGPILPPTNVGSNTY-NH2; disulfide 3-8 (inferred); C-terminus assumed), the “ThT pH 4.0 lag time (h)” value in data set [1] was 2 h. For the same compound, in the data set with food intake, the “Food intake reduction 0-24 h 3 nmol/kg (%)” value was 46% and the “Food intake reduction 24-48 h 3 nmol/kg (%)” value is recorded as 39%.

As to `CC[C@H](C)[C@H](NC(=O)[C@@H]1CCCN1C(=O)CNC(=O)[C@H](Cc1ccccc1)NC(=O)[C@H](CC(N)=O)NC(=O)[C@H](CC(N)=O)NC(=O)[C@H](CO)NC(=O)[C@H](CO)NC(=O)[C@H](Cc1c[nH]cn1)NC(=O)[C@H](Cc1c[nH]cn1)NC(=O)[C@H](CC(C)C)NC(=O)[C@H](Cc1ccccc1)NC(=O)[C@H](CCC(=O)O)NC(=O)[C@H](C)NC(=O)[C@H](CC(C)C)NC(=O)[C@H](CCCNC(=N)N)NC(=O)[C@H](CCC(N)=O)NC(=O)[C@@H](NC(=O)[C@H](C)NC(=O)[C@@H]1CSSC[C@H](NC(=O)[C@H](CCCCN)NC(=O)[C@H](CCC(=O)O)NC(=O)CC[C@H](NC(=O)CCCCCCCCCCCCCCCCC(=O)O)C(=O)O)C(=O)N[C@@H](CC(N)=O)C(=O)N[C@@H]([C@@H](C)O)C(=O)N[C@@H](C)C(=O)N[C@@H]([C@@H](C)O)C(=O)N1)[C@@H](C)O)C(=O)N[C@@H](CC(C)C)C(=O)N1CCC[C@H]1C(=O)N1CCC[C@H]1C(=O)N[C@H](C(=O)N[C@@H](CC(N)=O)C(=O)N[C@H](C(=O)NCC(=O)N[C@@H](CO)C(=O)N[C@@H](CC(N)=O)C(=O)N[C@H](C(=O)N[C@@H](Cc1ccc(O)cc1)C(N)=O)[C@@H](C)O)C(C)C)[C@@H](C)O` [Example 42, N-alpha-[(S)-4-Carboxy-4-(17-carboxyheptadecanoylamino)butyryl]-Glu-[Glu14,His17]-pramlintide] ({C18 diacid-γGlu}-EKCNTATCATQRLAEFLHHSSNNFGPILPPTNVGSNTY-NH2; disulfide 3-8 (inferred)), the “ThT pH 4.0 lag time (h)” value in data set [1] amounted to 7.3 h. Also, in the data set with food intake, the “Food intake reduction 0-24 h 3 nmol/kg (%)” value stood at 45% and the “Food intake reduction 24-48 h 3 nmol/kg (%)” value is on record as 5%.
